Tested on: OMP25–msGFP–HaloTag fusion protein in HEK293T cells
Experiment: Pulse–chase HaloTag labeling efficiency, SDS–PAGE/in-gel fluorescence
Assay type: cell-based
Conditions: 2 h, mean ± SEM
Procedure: PBS, 2% (v/v) SDS, 1% (v/v) Triton x-100, 10 mM EDTA, and protease inhibitors (2 mM PMSF, aprotinin, leupeptin, and pepstatin A). Samples were then incubated at 50 °C for 3–4 min after the addition of Laemmli sample buffer (SB; Bio-Rad, 1610747) with β-mercaptoethanol (Bio-Rad, 1610710). For protein detection, 10–20 µL of the sample was subjected to SDS-PAGE, using 10% Tris-Glycine gels (TGX) (Bio-Rad, 5671034) with Tris-Glycine buffer (Bio-Rad, 1610732). […]
Quantification of HaloTag labeling efficiency using in-gel fluorescence. HEK293T cells were cultured, incubated and transfected with pF(UG) hSyn HaloTag-TEV-4×GS-msGFP-mito using lipofectamine LTX reagent as described above. To examine saturation of HaloTag, we screened for fluorescence plateau using 1 μM of JF479-HaloTag ligand,4 JF549-HaloTag ligand (2HTL) and […]
(2HTL) and JF608-HaloTag ligand (3HTL) reached a fluorescence plateau, and they were chosen as saturating counter stains or “chase” dyes for examining the labeling efficiency of biotin-JF-HaloTag ligands (13HTL–16HTL). Next, we developed an in-gel assay to independently quantitate labeling efficiencies of 13HTL–16HTL. We used JF549-HaloTag ligand (2HTL) as chase for evaluating biotin-JF608-HaloTag ligand (14HTL), biotin-JF646-HaloTag ligand (15HTL), and biotin-JF635-HaloTag ligand (16HTL). We used JF608-HaloTag ligand (3HTL) as chase for evaluating biotin-JF549-HaloTag ligand (13HTL). Each experiment consisted of testing the biotin variants 13HTL–16HTL at 100 nM and 1 μM with an incubation time of 2 h and a chase labeling incubation of 1 μM for 0.5 h. The 0.5 h chase labeling period was included with the 2 h total incubation. Each experiment consisted of the following conditions: untransfected cells; (A) transduced, but no dye; (B) non-biotinylated variant of primary label at 1 μM for 0.5 h; (C) the nonbiotinylated version of the chase JF dye at 1 μM for 0.5 h; (D) 100 nM of the nonbiotinylated version of the primary label for 2 h; (E) 100 nM of the biotinylated version of primary label for 2 h; (F) 1 μM of the nonbiotinylated version of the primary label for 2 h; (G) 1 μM of the biotinylated version of primary label for 2 h; and (H) 1 μM of the non-biotinylated version of the chase JF dye at 1 μM for 2 h. This last condition H was the same as condition C but with a longer incubation (2 h vs. 0.5 h) to allow independent verification of the chase saturation using 0.5 h incubation. Samples D–G were incubated with a nonbiotinylated chase dye at 1 μM for 0.5 h. Cells were washed and protein lysates were harvested using Bio-Rad SDS-PAGE products as described above. Specifically, cells were lysed using protein lysis buffer as described above, and adding XT Sample Buffer (Bio-Rad, 1610791) and XT Reducing Agent (Bio-Rad, 1610792). Samples were heated at 72 °C for 5 min. Samples were then loaded onto a 4–12% Criterion XT Bis-Tris gel (Bio-Rad, 3450124) and ran at 150 V for approximately 1 h. Gels were then imaged on a Chemidoc MP imager (Bio-Rad) using orange, red, and far-red filters. Bands representing HaloTag ligand were quantified by densitometry using […]
labeling efficiency calculations, bands representing saturating chase dye fluorescence (e.g., JF549) were compared to saturating primary dye fluorescence allowing estimation of the amount of […]
Where F is the fraction of HaloTag protein labeled, Ce is the experimental chase dye fluorescence signal after incubation with pulse biotin-JF-HaloTag ligand, and Cs is the saturating chase dye fluorescence without incubation with a pulse ligand.
Neuro2a cell culture, labeling, lattice light sheet microscopy (LLSM), and confocal microscopy. Neuro2a cells (ATCC, CCL-131) were cultured in Eagle's minimum essential medium (MEM, phenol red-free; Life Technologies) supplemented with 10% (v/v) fetal bovine serum (FBS), and maintained at 37 °C in a humidified 5% (v/v) CO2 environment. Cells were transiently transfected using nucleofection (Lonza) with plasmids constitutively expressing

| Structure (SMILES) | labeling efficiency (100 nM pulse) [%] | labeling efficiency (1 µM pulse) [%] |
| --- | --- | --- |
| C[Si]1(C)C2=CC(=[N+]3CC(C(=O)NCCOCCOCCNC(=O)CCCC[C@@H]4SC[C@@H]5NC(=O)N[C@@H]54)C3)C=CC2=C(c2cc(C(=O)NCCOCCOCCCCCCCl)ccc2C(=O)[O-])c2ccc(N3CCC3)cc21 (some centres unmarked) [15HTL, biotin–JF646–HaloTag ligand] | 13.6 ± 3.7 | 61.7 ± 6.8 |
| O=C(CCCCC1SCC2NC(=O)NC21)NCCOCCOCCNC(=O)C1C[N+](=c2ccc3c(-c4cc(C(=O)NCCOCCOCCCCCCCl)ccc4C(=O)[O-])c4ccc(N5CCC5)cc4oc-3c2)C1 (centres unmarked) [13HTL, biotin–JF549–HaloTag ligand] | < 3 | < 3 |
| CC1(C)C2=CC(=[N+]3CC(C(=O)NCCOCCOCCNC(=O)CCCC[C@@H]4SC[C@@H]5NC(=O)N[C@@H]54)C3)C=CC2=C(c2cc(C(=O)NCCOCCOCCCCCCCl)ccc2C(=O)[O-])c2ccc(N3CCC3)cc21 (some centres unmarked) [14HTL, biotin–JF608–HaloTag ligand] | 11.3 ± 6.4 | 57.7 ± 9.6 |
| C[Si]1(C)C2=CC(=[N+]3CC(F)(C(=O)NCCOCCOCCNC(=O)CCCC[C@@H]4SC[C@@H]5NC(=O)N[C@@H]54)C3)C=CC2=C(c2cc(C(=O)NCCOCCOCCCCCCCl)ccc2C(=O)[O-])c2ccc(N3CC(F)C3)cc21 (some centres unmarked) [16HTL, biotin–JF635–HaloTag ligand] | 18.0 ± 4.9 | 69.0 ± 4.2 |
